Assays:
[1] = system: primary cultures of rat myocardial cells; assay: Staurosporine-induced decrease in cell viability (WST-8) in primary cultures of rat myocardial cells; type: cell-based; settings: for cytotoxicity induced in cultured myocardial cells: 1 μM staurosporine, HCO3−-free culture medium versus ordinary culture medium
Text: The myocardial cells used in the experiments were those of primary cultures from rats. In order to prepare primary cultures of myocardial cells, heart was excised from SD rats at day 20 of pregnancy (purchased from Japan SLC Co., Ltd.) and enzyme-digested with collagenase (Worthington Biochemical Corp.) and trypsin (GIBCO BRL, Gaithersberg, Md.) to isolate myocardial cells and make a cell suspension of them. As an ordinary culture medium, D-MEM supplemented with fetal bovine serum (FBS) to give a concentration of 10% (GIBCO BRL, Gaithersberg, Md.) was employed. For checking to see if Cl^−/HCO3^− anion exchangers (AEs) would be involved in apoptosis in cardiovascular cells and in protection from it, Leibovitz's L-15 Medium supplemented with FBS to give a concentration of 10% (GIBCO BRL, Gaithersberg, Md.) was employed as an HCO3^−-free culture medium and the result from it was compared with the result from the ordinary culture medium. The HCO3^−-free culture medium was employed in order to suppress the function of the Cl^−/HCO3^− anion exchangers by depleting HCO3^−. The Cl^−/HCO3^− anion exchangers are widely distributed in erythrocytes and other tissues, AE1 being expressed primarily in erythrocytes and AE3 in myocardial cells and neurons. By coupling the exclusion of intracellular Cl^− to the outside of cells and intake of extracellular HCO3^− into the cells, the exchangers function as an intracellular Cl^− and pH regulating system and they also work as a cell volume regulating system during regulatory volume increase (RVI). In a pathological context, it is speculated that the exchangers participate in the process of myocardial cells' acidification which accompanies ischemia.
A suspension of myocardial cells at a density of 3-5×10^5 cells/mL was dispensed in 24-well multiwell plates (Falcon) in an amount of 0.5 mL per well, or in 96-well multiwell plates (Falcon) in an amount of 0.1 mL per well, or in 12-well multiwell plates (Falcon) in an mount of 1 mL per well. The plates were placed in a CO2 incubator and cultured in 5% CO2 at 37° C. for 2-3 days. The thus cultured cells were used in subsequent experiments.
A control group consisted of three culture media, a cell-free medium (blank), a cell-containing medium alone (D-MEM) and 0.3% DMSO [D-MEM supplemented with 0.3% DMSO (DOJINDO LABORATORIES, Kumamoto, Japan)]. A test group consisted of three culture media containing a drug or drugs under specified conditions, i.e., a solution of 1 μM staurosporine (Sigma) dissolved in 0.3% DMSO, a mixed solution of the 1 μM staurosporine and 125-1000 μM SITS (SIGMA CHEMICAL Co., St. Louis, Mo., USA), and a mixed solution of the 1 μM staurosporine and 62.5-250 μM DIDS (SIGMA CHEMICAL Co., St. Louis, Mo., USA); the culture media of the test group are hereunder referred to as “conditioned culture media”.
Specifically, after aspirating away a culture medium, a fresh medium of the control group or a conditioned culture medium of interest was added in 24-well multiwell plates in an amount of 0.5 mL/well. After adding the conditioned culture medium, the plates were placed in a CO2 incubator and cultured in 5% CO2 at 37° C. for 2-4 hours. When a conditioned culture medium based on the HCO3^−-free culture medium was added, the plates were placed in an atmospheric incubator and cultured at 37° C. […]

[2] = system: caspase-3 activity of cultured rat myocardial cells; assay: Staurosporine-induced increase in caspase-3 activity of cultured myocardial cells (Caspase-3 Assay Kit, Fluorimetric; AMC formation); type: cell-based; settings: 1 μM staurosporine + 250 μM DIDS, 12-well multiwell plates, FIG. 5
Protocol: The caspase-3 activity of the thus prepared cells was measured with Caspase-3 Assay Kit, Fluorimetric (SIGMA CHEMICAL, Co., St. Louis, Mo., USA).
More specifically, 12-well multiwell plates were cultured for 2 hours after adding a conditioned culture solution, which was then removed and further cultivation was effected for an appropriate period, mostly for 2 hours; thereafter, cell lysates were prepared using Caspase-3 Assay Kit, Fluorimetric; in the subsequent stage, the amount of formation of specific fluorochrome 7-amino-4-methylcoumarin (AMC) was measured by means of a fluorometric microplate reader (SPECTRA Fluor, Wako Pure Chemical Industries, Ltd., Osaka, Japan) according to the procedure of measurement with the Kit; and the amount of AMC formation was used as an index of caspase-3 activity. […]

| Compound | suppression of the staurosporine-induced drop in cell viability ([1]; 1 μM staurosporine + 62.5, 125 or 250 μM DIDS, 24-well multiwell plates, FIG. 4) | suppression of the staurosporine-induced decrease in cell viability ([1]; HCO3−-free culture medium, 1 μM staurosporine + 62.5, 125 or 250 μM DIDS, 24-well multiwell plates, FIG. 6) | apoptosis suppressing effect on myocardial cells ([1]; overall conclusion from Examples 1-6) | suppression of the staurosporine-induced increase in caspase-3 activity [2] | cytotoxicity induced in cultured myocardial cells ([1]; 24-well multiwell plates, FIG. 6) | cytotoxicity induced in cultured myocardial cells ([1]; 96-well multiwell plates, FIG. 7) |
| --- | --- | --- | --- | --- | --- | --- |
| O=S(=O)(O)c1cc(N=C=S)ccc1C=Cc1ccc(N=C=S)cc1S(=O)(=O)O [DIDS, 4,4′-diisothiocyanostilbene-2,2′-disulfonic acid] | suppresses the drop in cell viability in a dose-dependent manner | suppressed the decrease in cell viability in a dose-dependent manner | exhibit the apoptosis suppressing effect on myocardial cells | suppresses the staurosporine-induced increase in caspase-3 activity |  |  |
| CN[C@@H]1C[C@H]2O[C@@](C)([C@@H]1OC)n1c3ccccc3c3c4c(c5c6ccccc6n2c5c31)C(=O)NC4 [staurosporine] |  |  |  |  | comparable levels of cytotoxicity was induced by staurosporine | comparable levels of cytotoxicity was induced on the 96-well multiwell plates by staurosporine |
